# According to PubChem BioAssay (NCI):
#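 Compound exposure: 48 hours, 5 concentrations, 96-well plates. TGI: total growth inhibition.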
# Columns and labels:
# Experiment in all cases: NCI-60 cell line screen, 48 h
# A498 renal = tested on: A498 renal
# IGROV1 ovarian = tested on: IGROV1 ovarian
# MCF7 breast = tested on: MCF7 breast
# HS 578T breast = tested on: HS 578T breast
# NCI/ADR-RES ovarian = tested on: NCI/ADR-RES ovarian
# CCRF-CEM leukemia = tested on: CCRF-CEM leukemia
# SK-MEL-5 melanoma = tested on: SK-MEL-5 melanoma
# COLO 205 colon = tested on: COLO 205 colon
# NCI-H23 lung = tested on: NCI-H23 lung
# NCI-H460 lung = tested on: NCI-H460 lung
# ACHN renal = tested on: ACHN renal
# NCI-H522 lung = tested on: NCI-H522 lung
# OVCAR-8 ovarian = tested on: OVCAR-8 ovarian
# RPMI-8226 leukemia = tested on: RPMI-8226 leukemia
# HCT-116 colon = tested on: HCT-116 colon
# HCT-15 colon = tested on: HCT-15 colon
# UACC-62 melanoma = tested on: UACC-62 melanoma
# SN12C renal = tested on: SN12C renal
# SK-MEL-2 melanoma = tested on: SK-MEL-2 melanoma
# NCI-H226 lung = tested on: NCI-H226 lung
# MALME-3M melanoma = tested on: MALME-3M melanoma
# MOLT-4 leukemia = tested on: MOLT-4 leukemia
# SK-MEL-28 melanoma = tested on: SK-MEL-28 melanoma
# MDA-MB-231 breast = tested on: MDA-MB-231 breast
# UACC-257 melanoma = tested on: UACC-257 melanoma
# LOX IMVI melanoma = tested on: LOX IMVI melanoma
# TK-10 renal = tested on: TK-10 renal
# MDA-N = tested on: MDA-N
# SF-268 CNS = tested on: SF-268 CNS
# K-562 leukemia = tested on: K-562 leukemia
# U251 CNS = tested on: U251 CNS
# HCC-2998 colon = tested on: HCC-2998 colon
# SF-539 CNS = tested on: SF-539 CNS
# PC-3 prostate = tested on: PC-3 prostate
# SR leukemia = tested on: SR leukemia
# HL-60(TB) leukemia = tested on: HL-60(TB) leukemia
# HOP-92 NSCLC = tested on: HOP-92 NSCLC
# SW-620 colon = tested on: SW-620 colon
# BT-549 breast = tested on: BT-549 breast
# 786-0 renal = tested on: 786-0 renal
# SK-OV-3 ovarian = tested on: SK-OV-3 ovarian
# OVCAR-4 ovarian = tested on: OVCAR-4 ovarian
# RXF 393 renal = tested on: RXF 393 renal
# M14 melanoma = tested on: M14 melanoma
# SF-295 CNS = tested on: SF-295 CNS
# EKVX NSCLC = tested on: EKVX NSCLC
# MDA-MB-435 = tested on: MDA-MB-435
# HOP-62 NSCLC = tested on: HOP-62 NSCLC
# OVCAR-5 ovarian = tested on: OVCAR-5 ovarian
# SNB-19 CNS = tested on: SNB-19 CNS
# SNB-75 CNS = tested on: SNB-75 CNS
# KM12 colon = tested on: KM12 colon
# A549 NSCLC = tested on: A549 NSCLC
# HT29 colon = tested on: HT29 colon
# CAKI-1 renal = tested on: CAKI-1 renal
# T-47D breast = tested on: T-47D breast
# OVCAR-3 ovarian = tested on: OVCAR-3 ovarian
# UO-31 renal = tested on: UO-31 renal
# DU-145 prostate = tested on: DU-145 prostate
structure (smiles),measurement,setting,value
Nc1c2c(nc3ccccc13)-c1ccccc1CC2,TGI,A498 renal,16.2 µM
same,TGI,IGROV1 ovarian,19.8 µM
same,TGI,MCF7 breast,13.8 µM
same,TGI,HS 578T breast,40.5 µM
same,TGI,NCI/ADR-RES ovarian,27.8 µM
same,TGI,CCRF-CEM leukemia,18.9 µM
same,TGI,SK-MEL-5 melanoma,15.3 µM
same,TGI,COLO 205 colon,15.8 µM
same,TGI,NCI-H23 lung,27.2 µM
same,TGI,NCI-H460 lung,6.22 µM
same,TGI,ACHN renal,14.1 µM
same,TGI,NCI-H522 lung,24.5 µM
same,TGI,OVCAR-8 ovarian,18 µM
same,TGI,RPMI-8226 leukemia,21.7 µM
same,TGI,HCT-116 colon,13.5 µM
same,TGI,HCT-15 colon,17.5 µM
same,TGI,UACC-62 melanoma,21.4 µM
same,TGI,SN12C renal,16.9 µM
same,TGI,SK-MEL-2 melanoma,23 µM
same,TGI,NCI-H226 lung,31.5 µM
same,TGI,MALME-3M melanoma,20.8 µM
same,TGI,MOLT-4 leukemia,9.23 µM
same,TGI,SK-MEL-28 melanoma,22.8 µM
same,TGI,MDA-MB-231 breast,17.8 µM
same,TGI,UACC-257 melanoma,9.09 µM
same,TGI,LOX IMVI melanoma,15.5 µM
same,TGI,TK-10 renal,14.7 µM
same,TGI,MDA-N,16 µM
same,TGI,SF-268 CNS,22.3 µM
same,TGI,K-562 leukemia,17.3 µM
same,TGI,U251 CNS,15.8 µM
same,TGI,HCC-2998 colon,2.81 µM
same,TGI,SF-539 CNS,15.1 µM
same,TGI,PC-3 prostate,14.4 µM
same,TGI,SR leukemia,9.31 µM
same,TGI,HL-60(TB) leukemia,14.5 µM
same,TGI,HOP-92 NSCLC,21.9 µM
same,TGI,SW-620 colon,14.8 µM
same,TGI,BT-549 breast,27 µM
same,TGI,786-0 renal,14.1 µM
COc1ccc(-c2c(C#N)c(-c3ccc(C)cc3)n(NS(=O)(=O)c3ccc(C)cc3)c(=O)c2C#N)cc1,TGI,SK-OV-3 ovarian,> 100 µM
same,TGI,A498 renal,> 100 µM
same,TGI,IGROV1 ovarian,> 100 µM
same,TGI,MCF7 breast,> 100 µM
same,TGI,OVCAR-4 ovarian,> 100 µM
same,TGI,HS 578T breast,75.1 µM
same,TGI,NCI/ADR-RES ovarian,> 100 µM
same,TGI,CCRF-CEM leukemia,81.6 µM
same,TGI,SK-MEL-5 melanoma,58.3 µM
same,TGI,RXF 393 renal,> 100 µM
same,TGI,COLO 205 colon,> 100 µM
same,TGI,NCI-H460 lung,> 100 µM
same,TGI,ACHN renal,> 100 µM
same,TGI,NCI-H522 lung,> 100 µM
same,TGI,OVCAR-8 ovarian,> 100 µM
same,TGI,M14 melanoma,> 100 µM
same,TGI,RPMI-8226 leukemia,46.3 µM
same,TGI,SF-295 CNS,> 100 µM
same,TGI,HCT-116 colon,> 100 µM
same,TGI,HCT-15 colon,> 100 µM
same,TGI,UACC-62 melanoma,> 100 µM
same,TGI,SN12C renal,> 100 µM
same,TGI,SK-MEL-2 melanoma,> 100 µM
same,TGI,NCI-H226 lung,> 100 µM
same,TGI,MALME-3M melanoma,> 100 µM
same,TGI,EKVX NSCLC,> 100 µM
same,TGI,MDA-MB-435,> 100 µM
same,TGI,HOP-62 NSCLC,> 100 µM
same,TGI,MOLT-4 leukemia,57.4 µM
same,TGI,SK-MEL-28 melanoma,> 100 µM
same,TGI,OVCAR-5 ovarian,> 100 µM
same,TGI,SNB-19 CNS,> 100 µM
same,TGI,SNB-75 CNS,> 100 µM
same,TGI,KM12 colon,> 100 µM
same,TGI,MDA-MB-231 breast,> 100 µM
same,TGI,A549 NSCLC,> 100 µM
same,TGI,UACC-257 melanoma,> 100 µM
same,TGI,LOX IMVI melanoma,> 100 µM
same,TGI,TK-10 renal,> 100 µM
same,TGI,MDA-N,> 100 µM
same,TGI,SF-268 CNS,> 100 µM
same,TGI,K-562 leukemia,> 100 µM
same,TGI,HT29 colon,> 100 µM
same,TGI,U251 CNS,> 100 µM
same,TGI,HCC-2998 colon,> 100 µM
same,TGI,CAKI-1 renal,> 100 µM
same,TGI,SF-539 CNS,> 100 µM
same,TGI,PC-3 prostate,> 100 µM
same,TGI,HOP-92 NSCLC,> 100 µM
same,TGI,SW-620 colon,> 100 µM
same,TGI,BT-549 breast,> 100 µM
same,TGI,786-0 renal,> 100 µM
COc1ccc2c(c1)/C(=C/CCN(C)C)c1ccccc1S2,TGI,SK-OV-3 ovarian,> 100 µM
same,TGI,A498 renal,> 100 µM
same,TGI,T-47D breast,> 100 µM
same,TGI,HS 578T breast,> 100 µM
same,TGI,NCI/ADR-RES ovarian,> 100 µM
same,TGI,CCRF-CEM leukemia,> 100 µM
same,TGI,SK-MEL-5 melanoma,31.7 µM
same,TGI,RXF 393 renal,> 100 µM
same,TGI,OVCAR-3 ovarian,> 100 µM
same,TGI,COLO 205 colon,38 µM
same,TGI,NCI-H23 lung,> 100 µM
same,TGI,NCI-H460 lung,> 100 µM
same,TGI,ACHN renal,> 100 µM
same,TGI,OVCAR-8 ovarian,> 100 µM
same,TGI,M14 melanoma,> 100 µM
same,TGI,SF-295 CNS,> 100 µM
same,TGI,HCT-116 colon,> 100 µM
same,TGI,HCT-15 colon,> 100 µM
same,TGI,SN12C renal,> 100 µM
same,TGI,NCI-H226 lung,> 100 µM
same,TGI,MDA-MB-435,> 100 µM
same,TGI,MOLT-4 leukemia,> 100 µM
same,TGI,SK-MEL-28 melanoma,38.8 µM
same,TGI,SNB-19 CNS,> 100 µM
same,TGI,SNB-75 CNS,> 100 µM
same,TGI,KM12 colon,> 100 µM
same,TGI,MDA-MB-231 breast,> 100 µM
same,TGI,A549 NSCLC,> 100 µM
same,TGI,UACC-257 melanoma,> 100 µM
same,TGI,LOX IMVI melanoma,> 100 µM
same,TGI,TK-10 renal,> 100 µM
same,TGI,MDA-N,> 100 µM
same,TGI,UO-31 renal,88.6 µM
same,TGI,SF-268 CNS,> 100 µM
same,TGI,K-562 leukemia,> 100 µM
same,TGI,HT29 colon,> 100 µM
same,TGI,U251 CNS,> 100 µM
same,TGI,HCC-2998 colon,> 100 µM
same,TGI,PC-3 prostate,> 100 µM
same,TGI,SR leukemia,> 100 µM
same,TGI,HL-60(TB) leukemia,> 100 µM
same,TGI,HOP-92 NSCLC,> 100 µM
same,TGI,SW-620 colon,> 100 µM
same,TGI,DU-145 prostate,> 100 µM
O=C(CCNC12CC3CC(CC(C3)C1)C2)c1ccccc1,TGI,A498 renal,62.9 µM
same,TGI,IGROV1 ovarian,55.4 µM
same,TGI,MCF7 breast,34.9 µM
same,TGI,OVCAR-4 ovarian,> 100 µM
same,TGI,T-47D breast,55.4 µM
same,TGI,NCI/ADR-RES ovarian,59.8 µM
same,TGI,CCRF-CEM leukemia,39.2 µM
same,TGI,SK-MEL-5 melanoma,32.7 µM
same,TGI,RXF 393 renal,53.5 µM
same,TGI,COLO 205 colon,34.9 µM
same,TGI,NCI-H23 lung,48.8 µM
same,TGI,NCI-H460 lung,69.6 µM
same,TGI,ACHN renal,88.7 µM
same,TGI,NCI-H522 lung,32 µM
same,TGI,OVCAR-8 ovarian,45 µM
same,TGI,M14 melanoma,37.1 µM
same,TGI,RPMI-8226 leukemia,26.4 µM
same,TGI,SF-295 CNS,50.2 µM
same,TGI,HCT-116 colon,29.4 µM
same,TGI,HCT-15 colon,40.2 µM
same,TGI,UACC-62 melanoma,39.6 µM
same,TGI,SN12C renal,36.3 µM
same,TGI,SK-MEL-2 melanoma,30 µM
same,TGI,NCI-H226 lung,> 100 µM
same,TGI,MALME-3M melanoma,32.1 µM
same,TGI,MDA-MB-435,65.9 µM
same,TGI,MOLT-4 leukemia,35.3 µM
same,TGI,SK-MEL-28 melanoma,75.4 µM
same,TGI,OVCAR-5 ovarian,71.7 µM
same,TGI,SNB-19 CNS,> 100 µM
same,TGI,SNB-75 CNS,65.3 µM
same,TGI,KM12 colon,91.1 µM
same,TGI,MDA-MB-231 breast,69.8 µM
same,TGI,A549 NSCLC,> 100 µM
same,TGI,UACC-257 melanoma,49.4 µM
same,TGI,TK-10 renal,39.6 µM
same,TGI,MDA-N,30.5 µM
same,TGI,UO-31 renal,77.6 µM
same,TGI,SF-268 CNS,> 100 µM
same,TGI,K-562 leukemia,36.5 µM
same,TGI,HT29 colon,23.6 µM
same,TGI,U251 CNS,31.9 µM
same,TGI,HCC-2998 colon,26.5 µM
same,TGI,SF-539 CNS,40.3 µM
same,TGI,PC-3 prostate,50.5 µM
same,TGI,SR leukemia,37.1 µM
same,TGI,HL-60(TB) leukemia,28.1 µM
same,TGI,HOP-92 NSCLC,64.2 µM
same,TGI,SW-620 colon,35.6 µM
same,TGI,BT-549 breast,85.3 µM
same,TGI,DU-145 prostate,> 100 µM
same,TGI,786-0 renal,31.6 µM
